In patent US6737383B1, “Herbicidal oxadiazolidines” (priority 1999, dated 2004):

What was measured:
cocklebur = test: Test B pre/postemergence cocklebur; assay type: in vivo, Xanthium strumarium
In short: (§1)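 Herbicidal effect was estimated by eye on a ten-point control scale after plants spent twelve to sixteen days in a greenhouse following soil or foliar treatment. Foliar sprays targeted plants at one to four leaves; all doses were formulated in a non-phytotoxic solvent with surfactant.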

corn = test: Test B pre/postemergence corn; assay type: in vivo, Zea mays
In short: as §1

crabgrass = test: Test B pre/postemergence crabgrass; assay type: in vivo, Digitaria sanguinalis
In short: as §1

giant foxtail = test: Test B pre/postemergence giant foxtail; assay type: in vivo, Setaria faberii
In short: as §1

morningglory = test: Test B pre/postemergence morningglory; assay type: in vivo, Ipomoea hederacea
In short: as §1

pigweed = test: Test B pre/postemergence pigweed; assay type: in vivo, Amaranthus retroflexus
In short: as §1

rape = test: Test B pre/postemergence rape; assay type: in vivo, Brassica napus
In short: as §1

soybean = test: Test B pre/postemergence soybean; assay type: in vivo, Glycine max
In short: as §1

sugar beet = test: Test B pre/postemergence sugar beet; assay type: in vivo, Beta vulgaris
In short: as §1

velvetleaf = test: Test B pre/postemergence velvetleaf; assay type: in vivo, Abutilon theophrasti
In short: as §1

wheat = test: Test B pre/postemergence wheat; assay type: in vivo, Triticum aestivum
In short: as §1

wild oat = test: Test B pre/postemergence wild oat; assay type: in vivo, Avena fatua
In short: as §1

purple nutsedge = test: Test B pre/postemergence purple nutsedge; assay type: in vivo, Cyperus rotundus; settings: Preemergence
In short: as §1

rice = test: Test B flood test rice; assay type: in vivo, Oryza sativa
In short: (§2)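 Flood test on plants grown to the 2-leaf stage; treated plants kept in greenhouse twelve to sixteen days, then visually rated against controls on a 0 (no effect) to 10 (complete control) scale.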

duck salad = test: Test B flood test duck salad; assay type: in vivo, Heteranthera limosa
In short: as §2

bamyardgrass = test: Test B flood test barnyardgrass; assay type: in vivo, Echinochloa crus-galli
In short: as §2

[1] = Postemergence, Rate 250 g/ha, scale 0 to 10, 0 no effect, 10 complete control
[2] = Postemergence, Rate 1000 g/ha, scale 0 to 10 (0 no effect, 10 complete control)
[3] = Preemergence, Rate 125 g/ha, scale 0 to 10 (0 no effect, 10 complete control)
[4] = Preemergence, Rate 250 g/ha, scale of 0 to 10 where 0 is no effect and 10 is complete control
[5] = Preemergence, Rate 500 g/ha, scale 0 (no effect) to 10 (complete control)
[6] = Rate 125 g/ha, Postemergence, scale 0 to 10, 0 no effect, 10 complete control
[7] = Rate 500 g/ha, Postemergence, 0 to 10 scale (0 no effect, 10 complete control)
[8] = Rate 1000 g/ha, Preemergence, scale 0 to 10 (0 no effect, 10 complete control)
[9] = Rate 125 g/ha, Postemergence section (flood test species), scale 0 to 10, 0 no effect, 10 complete control
[10] = Rate 500 g/ha, Postemergence section of Table B, 0 to 10 scale (0 no effect, 10 complete control)
[11] = flood test, listed under Postemergence, Rate 250 g/ha, scale 0 to 10, 0 no effect, 10 complete control

CC(C)N(C(=O)n1oc(=O)n(-c2cc(Cl)cc(Cl)c2)c1=O)C1=CCOCC1 [Compound 9]
0: Cocklebur plant response rating (cocklebur; [1]) | Plant response rating, Cocklebur (cocklebur; [3]) | Plant response rating, Cocklebur (cocklebur; [4]) | Cocklebur plant response rating (cocklebur; [5]) | Cocklebur plant response rating (cocklebur; [6]) | Cocklebur plant response rating (cocklebur; [7]) | Plant response rating, Cocklebur (cocklebur; [8]) | Corn plant response rating (corn; [1]) | Corn plant response rating (corn; [2]) | Plant response rating, Corn (corn; [3]) | Plant response rating, Corn (corn; [4]) | Corn plant response rating (corn; [5]) | Corn plant response rating (corn; [6]) | Corn plant response rating (corn; [7]) | Crabgrass plant response rating (crabgrass; [1]) | Crabgrass plant response rating (crabgrass; [2]) | Plant response rating, Crabgrass (crabgrass; [4]) | Crabgrass plant response rating (crabgrass; [6]) | Crabgrass plant response rating (crabgrass; [7]) | Giant foxtail plant response rating (giant foxtail; [1]) | Giant foxtail plant response rating (giant foxtail; [2]) | Plant response rating, Giant foxtail (giant foxtail; [3]) | Plant response rating, Giant foxtail (giant foxtail; [4]) | Giant foxtail plant response rating (giant foxtail; [6]) | Giant foxtail plant response rating (giant foxtail; [7]) | Morningglory plant response rating (morningglory; [1]) | Plant response rating, Morningglory (morningglory; [3]) | Plant response rating, Morningglory (morningglory; [4]) | Morningglory plant response rating (morningglory; [5]) | Morningglory plant response rating (morningglory; [6]) | Morningglory plant response rating (morningglory; [7]) | Plant response rating, Morningglory (morningglory; [8]) | Redroot pigweed plant response rating (pigweed; [1]) | Plant response rating, Redroot pigweed (pigweed; [3]) | Plant response rating, Redroot pigweed (pigweed; [4]) | Redroot pigweed plant response rating (pigweed; [5]) | Redroot pigweed plant response rating (pigweed; [6]) | Plant response rating, Redroot pigweed (pigweed; [8]) | Rape plant response rating (rape; [1]) | Rape plant response rating (rape; [2]) | Plant response rating, Rape (rape; [3]) | Plant response rating, Rape (rape; [4]) | Rape plant response rating (rape; [5]) | Rape plant response rating (rape; [6]) | Rape plant response rating (rape; [7]) | Plant response rating, Rape (rape; [8]) | Soybean plant response rating (soybean; [1]) | Plant response rating, Soybean (soybean; [3]) | Plant response rating, Soybean (soybean; [4]) | Soybean plant response rating (soybean; [5]) | Soybean plant response rating (soybean; [6]) | Plant response rating, Soybean (soybean; [8]) | Sugarbeets plant response rating (sugar beet; [1]) | Sugarbeets plant response rating (sugar beet; [2]) | Plant response rating, Sugarbeets (sugar beet; [3]) | Plant response rating, Sugarbeets (sugar beet; [4]) | Sugarbeets plant response rating (sugar beet; [5]) | Sugarbeets plant response rating (sugar beet; [6]) | Plant response rating, Sugarbeets (sugar beet; [8]) | Velvetleaf plant response rating (velvetleaf; [1]) | Velvetleaf plant response rating (velvetleaf; [2]) | Plant response rating, Velvetleaf (velvetleaf; [3]) | Plant response rating, Velvetleaf (velvetleaf; [4]) | Velvetleaf plant response rating (velvetleaf; [5]) | Velvetleaf plant response rating (velvetleaf; [6]) | Plant response rating, Velvetleaf (velvetleaf; [8]) | Wheat plant response rating (wheat; [1]) | Wheat plant response rating (wheat; [2]) | Plant response rating, Wheat (wheat; [3]) | Plant response rating, Wheat (wheat; [4]) | Wheat plant response rating (wheat; [5]) | Wheat plant response rating (wheat; [6]) | Plant response rating, Wheat (wheat; [8]) | Wild oats plant response rating (wild oat; [1]) | Wild oats plant response rating (wild oat; [2]) | Plant response rating, Wild oats (wild oat; [3]) | Plant response rating, Wild oats (wild oat; [4]) | Wild oats plant response rating (wild oat; [5]) | Wild oats plant response rating (wild oat; [6]) | Plant response rating, Wild oats (wild oat; [8]) | Plant response rating, Nutsedge (purple nutsedge; Rate 125 g/ha, scale 0 to 10 (0 no effect, 10 complete control)) | Plant response rating, Nutsedge (purple nutsedge; Rate 250 g/ha, scale of 0 to 10 where 0 is no effect and 10 is complete control) | Nutsedge plant response rating (purple nutsedge; Rate 500 g/ha, scale 0 (no effect) to 10 (complete control)) | Plant response rating, Nutsedge (purple nutsedge; Rate 1000 g/ha, scale 0 to 10 (0 no effect, 10 complete control)) | Rice plant response rating (rice; [2]) | Rice plant response rating (rice; [9]) | Rice plant response rating (rice; [10]) | Rice plant response rating (rice; [11]) | Ducksalad plant response rating (duck salad; [2]) | Ducksalad plant response rating (duck salad; [9]) | Ducksalad plant response rating (duck salad; [10]) | Ducksalad plant response rating (duck salad; [11]) | Barnyardgrass plant response rating (bamyardgrass; [2]) | Barnyardgrass plant response rating (bamyardgrass; [9]) | Barnyardgrass plant response rating (bamyardgrass; [10]) | Barnyardgrass plant response rating (bamyardgrass; [11])
4: Cocklebur plant response rating (cocklebur; [2])
2: Morningglory plant response rating (morningglory; [2])
7: Plant response rating, Giant foxtail (giant foxtail; [8])
1: Soybean plant response rating (soybean; [2])
3: Plant response rating, Corn (corn; [8]) | Plant response rating, Crabgrass (crabgrass; [3]) | Crabgrass plant response rating (crabgrass; [5]) | Plant response rating, Crabgrass (crabgrass; [8]) | Giant foxtail plant response rating (giant foxtail; [5]) | Redroot pigweed plant response rating (pigweed; [2]) | Redroot pigweed plant response rating (pigweed; [7])
